Results as given in PubChem BioAssay (NCI).
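Growth conditions: 96-well plates. Treatment: test compound, 48 hours, 5 concentrations. Analysis: linear interpolation between bracketing concentrations; unreached endpoints set to highest concentration. At the TGI there is no net growth.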 Where a SMILES comes first, the peptide text is derived from it.

Key:
Assay in all cases: NCI tumour cell line growth inhibition, 48 h
SNB-19 CNS = tested on: SNB-19 CNS
HCT-15 colon = tested on: HCT-15 colon
OVCAR-3 ovarian = tested on: OVCAR-3 ovarian
T-47D breast = tested on: T-47D breast
HOP-92 NSCLC = tested on: HOP-92 NSCLC
IGROV1 ovarian = tested on: IGROV1 ovarian
NCI/ADR-RES ovarian = tested on: NCI/ADR-RES ovarian
RXF 393 renal = tested on: RXF 393 renal
SF-295 CNS = tested on: SF-295 CNS
MDA-MB-435 = tested on: MDA-MB-435

SMILES | TGI (SNB-19 CNS) [µM] | TGI (HCT-15 colon) [µM] | TGI (OVCAR-3 ovarian) [µM] | TGI (T-47D breast) [µM] | TGI (HOP-92 NSCLC) [µM] | TGI (IGROV1 ovarian) [µM] | TGI (NCI/ADR-RES ovarian) [µM] | TGI (RXF 393 renal) [µM] | TGI (SF-295 CNS) [µM] | TGI (MDA-MB-435) [µM]
CC(=O)NC(CS)C(=O)NC(CO)C(=O)NC(CO)C(=O)NC(Cc1c[nH]c2ccccc12)C(=O)N1CCCC1C(=O)NC(CO)C(=O)NC(Cc1c[nH]c2ccccc12)C(=O)NC(Cc1c[nH]cn1)C(=O)NC(CO)C(=O)NC(Cc1c[nH]c2ccccc12)C(=O)NCC(=O)NCC(=O)NC(C)C(=O)NC(CCC(N)=O)C(=O)NC(CCCCN)C(=O)NC(C)C(=O)NC(CCCNC(=N)N)C(=O)NC(CCCCN)C(N)=O (stereo not given) (Ac-CSSWPSWHSWGGAQKARK-NH2; configuration not given here) | > 50 | > 50 | > 50 | 28.5 | > 50 | > 50 | > 50 | 24.9 | > 50 | > 50
COc1ccc(N[C@H](CS(=O)c2ccc(C)cc2)C(F)(F)F)cc1 (stereo not given in full) | > 100 | > 100 | > 100 | > 100 | > 100 | > 100 | > 100 | > 100 | > 100 | > 100
C=CC(=C)CCC(Br)C(C)(C)Br (stereo not given) | > 100 | > 100 | > 100 | > 100 | > 100 | > 100 | > 100 | > 100 | > 100 | > 100
Cc1cc(C)n(CN(CCCCO)Cn2nc(C)cc2C)n1 | > 100 | 34.7 | 58 | 66.5 | 81 | 73.4 | 39 | 39 | > 100 | 38.4
O=S(=O)(O)c1ccc(N=Nc2ccc(N=Nc3c(O)ccc4ccc(S(=O)(=O)O)cc34)cc2)cc1 | > 100 | > 100 | > 100 | > 100 | > 100 | > 100 | > 100 | > 100 | > 100 | > 100
COP(=O)(/C=C/C(NC(=O)C(Cl)(Cl)Cl)c1ccccc1)OC (stereo not given) | > 100 | > 100 | > 100 | > 100 | > 100 | > 100 | > 100 | > 100 | > 100 | > 100
CC1(C)CC[C@]2(C)[C@@H](O)C[C@]3(C)C(=CC[C@@H]4[C@@]5(C)CC[C@H](O)C(C)(C)[C@@H]5CC[C@]43C)[C@@H]2C1 | > 100 | > 100 | > 100 | 67.7 | 42.3 | > 100 | > 100 | 22.4 | > 100 | > 100
Cc1cn(CCCCOC(=O)NC(CCCN=C(N)N)C(=O)O)c(=O)[nH]c1=O (stereo not given) | > 100 | > 100 | > 100 | > 100 | > 100 | > 100 | > 100 | > 100 | > 100 | > 100
